Results from article PMC7287031 (Pharmacology Research & Perspectives, 2020).
Where two headings read alike, the source gives them in different places.

Columns and labels:
[1] = Placental transfer (fetal vs maternal plasma), rabbit embryofetal development study; format: in vivo; conditions: female, fetal plasma (relative to maternal plasma), rabbits, 3 hours post dose, Day 20 postcoitum, read-out: Fetal plasma concentration as % of maternal plasma concentration
[2] = set-up: method as in earlier work; conditions: humans, total of central and peripheral volume; ref 22 (Lu et al, manuscript submitted); cited from earlier work
CYP3A5 = target: T1, CYP3A5 (Homo sapiens, UniProt P20815); assay: Enzyme kinetics with recombinant CYP3A5 and scaling to HLM; format: in vitro ADME
T1 construct: purchased BD Biosciences
Method: In vitro incubations were carried out in 100‐mM potassium phosphate buffer (pH 7.4) and 5‐mM MgCl2 with a total volume of 200 µL. Substrate and either human liver microsomes (HLM, BD Biosciences, mixed gender pool of n = 50) or recombinant human enzymes (BD Biosciences) were added and pre‐incubated for 3 minutes at 37°C. The reaction was started by addition of a fresh solution of NADPH (1 mmol/L final concentration). The samples were incubated at 37°C with agitation of 500 rpm. For incubations with CYP2A6, CYP2C9, CYP2C18, and CYP4A11, the phosphate buffer was replaced by TRIS buffer (100 mmol/L, pH 7.4) and for flavin‐containing monooxygenases (FMOs), a glycine buffer (50 mM, pH 9.5) was used.
The enzymatic reaction was stopped and the protein was precipitated by addition of an equal volume of methanol. After 30 min at −80°C, the samples were centrifuged at 30'000 x g for 15 min. The supernatant was withdrawn. Aliquots were analyzed by LSC and the supernatant was diluted with water to obtain a final solution containing less than 20% of the organic solvent. For samples of low substrate concentration, supernatants were evaporated to dryness under nitrogen, then re‐suspended in water containing less than 20% of methanol. Samples were analyzed by HPLC combined with radiodetection. […]

[3] = Human ADME study: quantitative metabolite profiling in plasma; format: in vivo; conditions: human plasma pools n=6, from metabolite patterns
Method: A plasma pool across the six healthy volunteers included in the study was prepared at the time points of 1 hour, 3 hours, 24 hours, and 48 hours post dose. For each time point, an equal volume of plasma was taken from each subject and combined. Plasma pool samples were processed by protein precipitation with acetonitrile. The protein pellet that resulted from precipitation with acetonitrile was washed further with additional aliquots of acetonitrile. All acetonitrile washes were combined and evaporated under nitrogen. For the 3‐ and 24‐hour plasma pools, the extraction procedure was slightly modified, including precipitation of the plasma proteins by addition of a 1:1 mixture of acetonitrile:methanol, followed by washing of the protein pellet with the same solvent mixture. All extracts were reconstituted with a solution of 15‐mM ammonium formate and acetonitrile (95:5 v/v). Extraction and reconstitution recoveries were measured in all four plasma samples in order to calculate and overall recovery. Quantitative metabolite profiling in plasma was accomplished using a Shimadzu Prominence high‐performance liquid chromatography (HPLC) system (Shimadzu, Columbia, MD, USA), coupled with fraction collection and analysis of total radioactivity in individual fractions using AMS (as described above). A second injection of each sample, conducted immediately after the first, was used to provide HPLC fractions for metabolite identification. The fractions identified as containing radioactivity from the AMS analysis were analyzed by HPLC coupled with high‐resolution mass spectrometry to identify the metabolites. The HPLC‐MS/MS methodology used is described below.

[4] = Dog pharmacokinetic studies: plasma PK of ribociclib after single i.v. or oral dose; format: in vivo; conditions: male; for half-life: read-out: t½ (converted)
Method: ADME studies (including QWBA in pigmented and non‐pigmented rats) using radiolabeled ribociclib were conducted in rat and dog. Relevant institutional and national guides for the care and use of laboratory animals were followed. […]

[5] = Beagle, 0.5 mg/kg, dog m (3), po, 0.5 mg base/kg
[6] = Beagle, 5 mg/kg, dog m (3), po, 5.0 mg base/kg
[7] = Beagle, dog m (4), po, 18.9 mg base/kg

T1 sequence (P20815 whole entry): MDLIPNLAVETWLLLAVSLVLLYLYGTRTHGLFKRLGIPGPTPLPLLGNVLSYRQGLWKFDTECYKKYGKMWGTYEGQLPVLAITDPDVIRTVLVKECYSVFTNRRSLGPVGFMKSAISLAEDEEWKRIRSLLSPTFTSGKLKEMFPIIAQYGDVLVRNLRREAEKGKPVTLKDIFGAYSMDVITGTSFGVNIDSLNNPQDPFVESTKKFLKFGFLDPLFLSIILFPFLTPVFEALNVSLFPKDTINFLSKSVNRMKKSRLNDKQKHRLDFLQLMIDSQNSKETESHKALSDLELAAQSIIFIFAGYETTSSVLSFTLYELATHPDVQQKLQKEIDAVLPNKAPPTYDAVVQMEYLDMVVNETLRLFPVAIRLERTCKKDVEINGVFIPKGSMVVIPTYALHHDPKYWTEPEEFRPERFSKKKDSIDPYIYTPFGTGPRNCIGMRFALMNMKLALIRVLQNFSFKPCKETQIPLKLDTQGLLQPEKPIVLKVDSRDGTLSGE

CN(C)C(=O)c1cc2cnc(Nc3ccc(N4CCNCC4)cn3)nc2n1C1CCCC1 [ribociclib, Ribociclib]
Kp at 3 h [1]: 0.06
apparent volume of distribution at steady state [2]: 1090 L
fm,CYP (CYP3A5; CYP3A5, share of total CYP-mediated metabolism in HLM): 1.2%
fumic (CYP3A5; CYP3A5 incubation): 0.87
AUC0-48h, % of total [14C]-AUC0-48 [3]: approximately 43.5%
AUC0-48h, % of total [14C]-AUC0-48 ([3]; listed as Ribociclib): 43.5%
Cmax [4, 5]: 10.4 ng/mL
bioavailability [4, 5]: 64%
AUC(0-t) ([4]; Beagle, 0.5 mg/kg, dog m (3), po, 0.5 mg base/kg, AUC interval 24 h): 155 ng·h/mL
Cmax [4, 6]: 206 ng/mL
Tmax [4, 6]: 1 h
AUC(0-t) ([4]; Beagle, 5 mg/kg, dog m (3), po, 5.0 mg base/kg, AUC interval 168 h): 4520 ng·h/mL
half-life [4, 6]: 38.8 h
Cmax [4, 7]: 1220 ng/mL
Tmax [4, 7]: 1 h
bioavailability [4, 7]: 87%
AUC(0-t) ([4]; Beagle, dog m (4), po, 18.9 mg base/kg, AUC interval 48 h): 21100 ng·h/mL
half-life [4, 7]: 12.6 h
AUC(0-t) ([4]; Beagle, iv, 0.2 mg/kg, dog m (3), 0.2 mg base/kg, AUC interval 24 h): 105 ng·h/mL
clearance ([4]; iv, dog m (3), 0.2 mg base/kg): 31.7 mL/min/kg
Vd ([4]; iv, dog m (3), i.v., 0.2 mg base/kg, read-out: Vss): 27.9 L/kg
half-life ([4]; iv, dog m (3), i.v., 0.2 mg base/kg): 18.1 h
